From ChEMBL document CHEMBL1156602, “Synthesis and antiviral properties of some polyphenols related to Salvia genus” (Bioorg Med Chem Lett, 2008)

Tests used:
[1] = Cytotoxicity against human MT2 cells after 48 hrs; assay type: cell-based; conditions: read-out: LD50
[2] = test system: Human immunodeficiency virus 1; test: Antiviral activity against HIV1 LAI in MT2 cells assessed as inhibition of virus-induced cytopathic effect; assay type: functional; conditions: Human immunodeficiency virus 1, LAI, read-out: ED50 (the source's name)
[3] = target: T1, Human immunodeficiency virus type 1 integrase (Human immunodeficiency virus 1, UniProt Q7ZJM1); test: Inhibition of HIV1 integrase catalyzed reactions
T1 sequence (Q7ZJM1 whole entry): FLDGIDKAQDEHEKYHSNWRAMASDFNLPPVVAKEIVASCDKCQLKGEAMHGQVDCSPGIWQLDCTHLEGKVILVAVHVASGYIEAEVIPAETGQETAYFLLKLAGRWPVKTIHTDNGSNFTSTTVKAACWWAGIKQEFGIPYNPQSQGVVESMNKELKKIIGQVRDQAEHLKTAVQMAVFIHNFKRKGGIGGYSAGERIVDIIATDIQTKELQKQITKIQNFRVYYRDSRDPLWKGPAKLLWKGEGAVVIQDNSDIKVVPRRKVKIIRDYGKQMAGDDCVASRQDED

[4] = test system: Human immunodeficiency virus 1; test: Antiviral activity against HIV1 in MT4 cells assessed as inhibition of virus-induced cytopathic effect by MTT assay; assay type: functional, organism-based; conditions: Human immunodeficiency virus 1, MT4
[5] = target: T1, Human immunodeficiency virus type 1 integrase; test: Inhibition of HIV1 integrase by overall integration assay
[6] = target: T1, Human immunodeficiency virus type 1 integrase; test: Inhibition of HIV1 integrase strand transfer activity
[7] = Cytotoxicity against human MT4 cells by MTT assay; assay type: cell-based
[8] = target: T1, Human immunodeficiency virus type 1 integrase; test: Inhibition of HIV1 integrase in presence of Mn2+

IC50 [8] [µM]	Structure (SMILES)	CC50 at 48 h [1] [µM]	EC50 [2] [µM]	IC50 [3] [µM]	EC50 [4] [µM]	IC50 [5] [µM]	IC50 [6] [µM]	CC50 [7] [µM]
	O=C(/C=C/c1ccc(O)c(O)c1)O[C@@H]1C[C@](O)(C(=O)O)C[C@@H](OC(=O)/C=C/c2ccc(O)c(O)c2)[C@H]1O	300	1.9	0.64				
	O=C(O)/C=C/c1ccc(O)c(O)c1CC(=O)O				> 44	1.34	1.09	44
	O=C(O)/C=C/c1ccc(O)c(O)c1/C(=C/c1ccc(O)c(O)c1)C(=O)O				> 4.5	0.56	0.73	4.5
	O=C(O)/C=C/c1ccc(O)c2c1C1C(=O)c3cc(O)c(O)cc3C1O2 (racemic)				> 23.3	0.15	0.3	23.3
2.8	O=C(O)/C=C/c1ccc(O)c(O)c1 [CAFFEIC ACID]					2.8	24	
	O=C(/C=C/c1ccc(O)c(O)c1)O[C@@H](C(=O)O)[C@@H](OC(=O)/C=C/c1ccc(O)c(O)c1)C(=O)O [CICHORIC ACID]	700						
